Assay results published in patent US7943628B2, “Pyrimidine derivatives” (Pfizer Limited, priority 2005, dated 2011).

molecular target: T1, histamine H4 receptor (Homo sapiens, UniProt Q9H3N8); experiment: H4 binding, method 1 ([3H]-histamine filtration binding on CHO cell membranes); settings: 1.5 h
T1 construct: expressed in transfected cells; host or cells: CHO cells
Experimental: Cell pellets from CHO cells expressing the histamine H4 receptor were homogenised in ice-cold 50 mM Tris-HCl/0.5 mM CaCl2 buffer containing a protease inhibitor cocktail (Roche®, United Kingdom) using a ground glass homogeniser. Homogenates were centrifuged at 48000 g for 30 min at 4° C. The membrane pellet was resuspended in fresh buffer and the centrifugation step was repeated as described above. The membrane pellet was resuspended in 50 mM Tris-HCl in the same volume as the original cell pellet. Aliquots of membrane preparations were stored at −80° C. and were used for [^3H]-Histamine binding experiments.
Cell membranes (20-35 μg/well) were incubated for 90 minutes shaking at room temperature with 3 nM [2,5-^3H]Histamine dihydrochloride (30-60 Ci/mmol) in 50 mM Tris-HCl (pH 7.4), with or without competing H4 ligands. The reaction was terminated by rapid filtration through 0.5% polyethylenimine-soaked Unifilter GF/B plates (Packard) followed by three washes with 1 ml ice-cold 50 mM Tris-HCl. Filters were dried for 45 min at 45° C. and bound radiolabel was determined using scintillation counting techniques. Non-specific binding was defined with 10 μM JNJ7777120.

| Compound | inhibition at 10 µM |
| --- | --- |
| CN1CCN(c2cc(NC(C)(C)C)nc(N)n2)CC1 [Example 223, N^4-(tert-Butyl)-6-(4-methylpiperazin-1-yl)pyrimidine-2,4-diamine] | 13% |

same assay, conditions: H4 binding, method 1; Ki calculated from IC50 (Cheng-Prussoff)

| Ki | Compound |
| --- | --- |
| 704 nM | CCCNc1cc(N2CCC(C)(N)C2)nc(N)n1 (centres unmarked) [Example 264, 6-(3-Amino-3-methylpyrrolidin-1-yl)-N^4-propylpyrimidine-2,4-diamine] |
| 39.9 nM | CCCNc1cc(N2CC(NC)C2)ncn1 [Example 206, 6-[3-(Methylamino)azetidin-1-yl]-N-propylpyrimidin-4-amine] |
| 312 nM | C[C@@H]1CN(c2cc(NCc3ccc(F)cc3)nc(N)n2)CCN1 [Example 247, N^4-(4-Fluorobenzyl)-6-[(3R)-3-methylpiperazin-1-yl]pyrimidine-2,4-diamine] |
| 1160 nM | CN[C@@H]1CCN(c2cc(N3CC(F)(F)C3)nc(N)n2)C1 [Example 275, 4-(3,3-Difluoroazetidin-1-yl)-6-[(3R)-3-(methylamino)pyrrolidin-1-yl]pyrimidin-2-amine] |
| 70.6 nM | CC(C)CNc1cc(N2CC[C@@H](N)C2)nc(N)n1 [Example 216, 6-[(3R)-3-Aminopyrrolidin-1-yl]-N^4-isobutylpyrimidine-2,4-diamine] |
| 82.3 nM | CCCNc1cc(N2CC[C@@H](N)C2)nc(N)n1 [Example 219, 6-[(3R)-3-Aminopyrrolidin-1-yl]-N^4-propylpyrimidine-2,4-diamine] |
| 6.5 nM | CNC1CN(c2cc(NC(C)(C)C)nc(N)n2)C1 [Example 168, N^4-(tert-Butyl)-6-[3-(methylamino)azetidin-1-yl]pyrimidine-2,4-diamine] |
| 271 nM | CC(C)CCNc1cc(N[C@H]2CCNC2)ncn1 [Example 107] |
| 715 nM | C[C@@H]1CN(c2cc(NCc3cccc(F)c3)nc(N)n2)CCN1 [Example 267, N^4-(3-Fluorobenzyl)-6-[(3R)-3-methylpiperazin-1-yl]pyrimidine-2,4-diamine] |
| 1070 nM | CC(C)(C)CCNc1cc(N[C@H]2CCN(Cc3ccc(CO)o3)C2)ncn1 [Example 274, (5-{[(3S)-3-({6-[(3,3-Dimethylbutyl)amino]pyrimidin-4yl}amino)pyrrolidin--1-yl]methyl}-2-furyl)methanol] |
| 10.6 nM | CN[C@@H]1CCN(c2cc(NCC3CCCC3)nc(N)n2)C1 [Example 174, N^4-(Cyclopentylmethyl)-6-[(3R)-3-(methylamino)pyrrolidin-1-yl]pyrimidine-2,4-diamine] |
| 577 nM | C[C@@H]1CN(c2cc(NCc3ccccc3)nc(N)n2)CCN1 [Example 259, N^4-Benzyl-6-[(3R)-3-methylpiperazin-1-yl]pyrimidine-2,4-diamine] |
| 35 nM | CC(C)(C)CNc1cc(N2CCC(N)CC2)nc(N)n1 [Example 201, 6-(4-Aminopiperidin-1-yl)-N^4-(2,2-dimethylpropyl)pyrimidine-2,4-diamine] |
| 2000 nM | CC(C)(C)CNc1cc(N2CC(N3CCOCC3)C2)nc(N)n1 [Example 287, N^4-(2,2-Dimethylpropyl)-6-(3-morpholin-4-ylazetidin-1-yl)pyrimidine-2,4-diamine] |
| 12.4 nM | CC[C@H](C)Nc1cc(N2CC[C@@H](NC)C2)nc(N)n1 [Example 151, 6-[(3R)-3-(Methylamino)pyrrolidin-1-yl]-N^4-[(1S)-1-methylpropyl]pyrimidine-2,4-diamine] |
| 708 nM | CCCNc1cc(N2CCC(N)CC2)nc(N)n1 [Example 266, 6-(4-Aminopiperidin-1-yl)-N^4-propylpyrimidine-2,4-diamine] |
| 3.78 nM | CNC1CN(c2cc(N[C@@H](C)C(C)C)nc(N)n2)C1 [Example 129, N^4-[(1S)-1,2-Dimethylpropyl]-6-[3-(methylamino)azetidin-1-yl]pyrimidine-2,4-diamine] |
| 1550 nM | c1ccc(CNc2cc(N[C@H]3CCNC3)ncn2)cc1 [Example 281, N-Benzyl-N′-[(3S)-pyrrolidin-3-yl]pyrimidine-4,6-diamine] |
| 113 nM | CC(C)NC1CN(c2cc(NCC(C)(C)C)ncn2)C1 [Example 226, N-(2,2-Dimethylpropyl)-6-[3-(isopropylamino)azetidin-1-yl]pyrimidin-4-amine] |
| 17.4 nM | CCCNc1cc(N2CC[C@@H](NC)C2)nc(N)n1 [Example 180, 6-[(3R)-3-(Methylamino)pyrrolidin-1-yl]-N^4-propylpyrimidine-2,4-diamine] |
| 32.4 nM | CN(C)CCNc1cc(NCC2CC2)ncn1 [Example 194, N-(Cyclopropylmethyl)-N′-[2-(dimethylamino)ethyl]pyrimidine4,6-diamine] |
| 380 nM | CN[C@@H]1CCN(c2cc(NCc3ccccc3F)nc(N)n2)C1 [Example 253, N^4-(2-Fluorobenzyl)-6-[(3R)-3-(methylamino)pyrrolidin-1-yl]pyrimidine-2,4-diamine] |
| 5190 nM | c1ccc(CCNc2cc(N[C@H]3CCNC3)ncn2)cc1 [Example 315, N-(2-Phenylethyl)-N′-[(3S)-pyrrolidin-3-yl]pyrimidine-4,6-diamine] |
| 117 nM | C[C@H]1CN(c2cc(NCc3cccc(F)c3)nc(N)n2)CCN1 [Example 228, N^4-(3-Fluorobenzyl)-6-[(3S)-3-methylpiperazin-1-yl]pyrimidine-2,4-diamine] |
| 9.69 nM | CNC1CN(c2cc(NCc3cc(F)ccc3F)nc(N)n2)C1 [Example 130, N^4-(2,5-Difluorobenzyl)-6-[3-(methylamino)azetidin-1-yl]pyrimidine-2,4-diamine] |
| 374 nM | CN(C)C1CN(c2cc(NCCC(C)(C)C)ncn2)C1 [Example 4, 6-[3-(Dimethylamino)azetidin-1-yl]-N-(3,3-dimethylbutyl)pyrimidin-4-amine] |
| 50 nM | NCCNc1cc(NCC2CC2)nc(N)n1 [Example 212, N^4-(2-Aminoethyl)-N^6-(cyclopropylmethyl)pyrimidine-2,4,6-triamine] |
| 238 nM | C[C@H]1CN(c2cc(NCc3ccc(F)cc3)nc(N)n2)CCN1 [Example 240, N^4-(4-Fluorobenzyl)-6-[(3S)-3-methylpiperazin-1-yl]pyrimidine-2,4-diamine] |
| 3.04 nM | CC(C)(C)CNc1cc(N2CC(N3CCCC3)C2)nc(N)n1 [Example 142, N^4-(2,2-Dimethylpropyl)-6-(3-pyrrolidin-1-ylazetidin-1-yl)pyrimidine-2,4-diamine] |

| Compound | Ki |
| --- | --- |
| CC(C)(C)CNc1cc(NC2C3CNCC32)nc(N)n1 (stereo not drawn) [Example 222, N^4-[(1R*,5S*,6s*)-3-Azabicyclo[3.1.0]hex-6-yl]-N^6-(2,2-dimethylpropyl)pyrimidine-2,4,6-triamine] | 95.2 nM |
| Nc1nc(NCC2CC2)cc(N2CCNCC2)n1 [Example 154, N^4-(Cyclopropylmethyl)-6-piperazin-1-ylpyrimidine-2,4-diamine] | 1.71 nM |
| c1nc(NCC2CC2)cc(N2CCNCC2)n1 [Example 285, N-(Cyclopropylmethyl)-6-piperazin-1-ylpyrimidin-4-amine] | 1800 nM |
| CC(C)(C)CNc1cc(N2C[C@@H]3CCCN[C@@H]3C2)nc(N)n1 [Example 166, N^4-(2,2-Dimethylpropyl)-6-[(4aS,7aS)-octahydro-6H-pyrrolo[3,4-b]pyridin-6-yl]pyrimidine-2,4-diamine] | 3.99 nM |
| CN1C[C@@H]2C[C@H]1CN2c1cc(NCC(C)(C)C)nc(N)n1 [Example 191, N^4-(2,2-Dimethylpropyl)-6-[(1S,4S)-5-methyl-2,5-diazabicyclo[2.2.1]hept-2-yl]pyrimidine-2,4-diamine] | 28.2 nM |
